Data: ChEMBL document CHEMBL4706626, “Triterpenoid-Mediated Inhibition of Virus-Host Interaction: Is Now the Time for Discovering Viral Entry/Release Inhibitors from Nature?” (J Med Chem, 2020)

Legend:
[1] = test system: Human immunodeficiency virus 1; experiment: Anti-HIV-1 activity against HIV1 NL4-3 infected in human HeLa expressing CD4/CCR5/beta-gal assessed as inhibition of syncytium formation incubated for 2 days by MAGI assay; type: functional, organism-based; details: Human immunodeficiency virus 1, NL4-3, HeLa, 48 h
[2] = Binding affinity to EBOV envelope glycoprotein HR2 domain by surface plasmon resonance; design: species or system Ebolavirus
HEK293T = experiment: Inhibition of Ebola virus pseudoparticle GP HR2 domain-mediated viral entry into human 293T cells at 1 uM incubated for 72 hrs by Bright-Glo reagent based assay relative to control; type: cell-based; details: Ebolavirus
[3] = Selectivity index, ratio of CC50 for human MRC5 cells to EC50 for HCoV-229E infected in human MRC5 cells; type: toxicity, cell-based; details: MRC5 cells (CC50) and HCoV-229E-infected MRC5 cells (EC50)
Human coronavirus 229E = experiment: Antiviral activity against HCoV-229E infected in human MRC5 cells incubated for 2 hrs by XTT method; type: functional, organism-based; details: MRC5, 2 h
[4] = Inhibition of Zaire Ebola virus pseudoparticle GP HR2 domain-mediated virus-host fusion in human A549 cells incubated for 72 hrs by Bright-Glo reagent based assay; type: cell-based, Zaire ebolavirus
[5] = Inhibition of Zaire Ebola virus pseudoparticle GP HR2 domain-mediated virus-host fusion in human 293T cells incubated for 72 hrs by Bright-Glo reagent based assay; type: cell-based, Zaire ebolavirus; details: hek293t
[6] = Binding affinity to EBOV envelope glycoprotein HR2 domain assessed as reduction in HR1-HR2 interaction by measuring Kd for HR1-HR2 affinity by surface plasmon resonance (reference value: 1 uM); design: species or system Ebolavirus
[7] = Antiviral activity against Ebola virus Makona infected in human HeLa cells pretreated for 2 hrs followed by viral infection for 48 hrs by Alexa Fluor 488 staining based assay; type: functional, cell-based; details: Zaire ebolavirus
[8] = Antiviral activity against Ebola virus Makona infected in human foreskin fibroblast pretreated for 2 hrs followed by viral infection for 48 hrs by Alexa Fluor 488 staining based assay; type: functional, cell-based; details: Zaire ebolavirus
[9] = test system: Human immunodeficiency virus 1; experiment: Antiviral activity against HIV-1 harboring V307A mutant; type: functional, organism-based
[10] = test system: Human immunodeficiency virus 1; experiment: Antiviral activity against HIV-1 NL4-3; type: functional, organism-based; details: Human immunodeficiency virus 1, NL4-3
[11] = test system: Human immunodeficiency virus 1; experiment: Anti-HIV-1 activity against HIV1 IIIB infected in human H9 cells assessed as in p24 antigen production by sandwich ELISA; type: functional, organism-based; details: Human immunodeficiency virus 1, IIIB
[12] = test system: Human immunodeficiency virus 1; experiment: Anti-HIV-1 activity against HIV1 IIIB/LAI infected in human CEM 4 cells assessed as reduction in virus-indued cytopathic effect treated for 1 hr with cells followed by viral infection and measured after 5 days; type: functional, organism-based; details: Human immunodeficiency virus 1, IIIB/LAI
Hepatitis C virus = experiment: Antiviral activity against HCV pseudoparticle infected in Huh-7 cells assessed as inhibition of viral entry pretreated for 30 mins with cells followed by viral infection for 4 hrs and subsequent compound wash out and measured after 72 hrs by Bright-Glo reagent based luciferase assay; type: functional, organism-based, Hepacivirus hominis
Albumin = Albumin (Homo sapiens, UniProt P02768); experiment: Protein binding in human serum albumin; type: ADME; details: read-out: PB
Sequence of Albumin (P02768 whole entry): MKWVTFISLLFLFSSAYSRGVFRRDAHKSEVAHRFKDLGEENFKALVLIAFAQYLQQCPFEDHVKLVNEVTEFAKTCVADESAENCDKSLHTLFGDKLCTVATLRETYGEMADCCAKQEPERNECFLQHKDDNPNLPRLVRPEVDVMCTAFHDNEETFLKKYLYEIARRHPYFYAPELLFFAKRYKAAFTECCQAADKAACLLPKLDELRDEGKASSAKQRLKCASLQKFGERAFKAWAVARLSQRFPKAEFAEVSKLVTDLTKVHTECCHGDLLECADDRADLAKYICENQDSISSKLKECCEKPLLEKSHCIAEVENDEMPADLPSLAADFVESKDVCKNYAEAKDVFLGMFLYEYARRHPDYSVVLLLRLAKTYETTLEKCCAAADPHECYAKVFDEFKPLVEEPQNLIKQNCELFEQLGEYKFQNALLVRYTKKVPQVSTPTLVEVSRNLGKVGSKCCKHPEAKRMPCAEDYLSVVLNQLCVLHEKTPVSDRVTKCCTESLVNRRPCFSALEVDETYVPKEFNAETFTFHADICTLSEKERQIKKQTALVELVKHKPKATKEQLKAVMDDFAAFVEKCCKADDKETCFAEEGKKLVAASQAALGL

[13] = Aqueous solubility of compound; type: physicochemical

C=C(C)[C@@H]1CC[C@]2(C(=O)NCCCCCCCC(=O)N[C@@H](CC(C)C)[C@H](O)CC(=O)O)CC[C@]3(C)[C@H](CC[C@@H]4[C@@]5(C)CC[C@H](O)C(C)(C)[C@@H]5CC[C@]43C)[C@@H]12
EC50 [1]: 400 nM

C#CCN(CCCC1(C)N=N1)C(=O)[C@]12CCC(C)(C)C[C@H]1C1=CC[C@@H]3[C@@]4(C)CCC(=O)C(C)(C)[C@@H]4CC[C@@]3(C)[C@]1(C)CC2=O
Kd [2]: 16800 nM

CC1(C)CC[C@]2(C(=O)N[C@@H]3O[C@H](CO)[C@H](O)[C@H](O)[C@H]3O)CC[C@]3(C)C(=CC[C@@H]4[C@@]5(C)CCC(=O)C(C)(C)[C@@H]5CC[C@]43C)[C@@H]2C1
inhibition (HEK293T): 7%

C[C@H]1O[C@@](O)(O[C@H]2CC[C@@]3(C)[C@@H](CC[C@]4(C)[C@@H]3C=CC3=C5CC(C)(C)CC[C@]5(CO)[C@H](O)C[C@]34C)[C@]2(C)CO)[C@H](O)[C@@H](O[C@@H]2O[C@H](CO)[C@@H](O)[C@H](O)[C@H]2O)[C@H]1O
selectivity ratio [3]: 222
IC50 (Human coronavirus 229E): 1700 nM

CC1(C)CC[C@]2(C(=O)N[C@@H]3O[C@H](CO)[C@@H](O)[C@H](O)[C@@H]3O)[C@H](O)C[C@]3(C)C(=CC[C@@H]4[C@@]5(C)CC[C@H](O)C(C)(C)[C@@H]5CC[C@]43C)[C@@H]2C1
inhibition (HEK293T): 3%

CC(C)C[C@H](NC(=O)CCCCCCCNC(=O)[C@]12CC[C@@H](C(C)C)[C@@H]1[C@H]1CC[C@@H]3[C@@]4(C)CC[C@H](O)C(C)(C)[C@@H]4CC[C@@]3(C)[C@]1(C)CC2)[C@H](O)CC(=O)O
EC50 [1]: 330 nM

CC1(C)CC[C@]2(C(=O)N[C@@H]3O[C@H](CO)[C@H](O)[C@H](O)[C@H]3O)[C@H](O)C[C@]3(C)C(=CC[C@@H]4[C@@]5(C)CC[C@H](O)C(C)(C)[C@@H]5CC[C@]43C)[C@@H]2C1
inhibition (HEK293T): 16%

CC(=O)OC[C@H]1O[C@@H](NC(=O)[C@]23CCC(C)(C)C[C@H]2C2=CC[C@@H]4[C@@]5(C)CCC(=O)C(C)(C)[C@@H]5CC[C@@]4(C)[C@]2(C)CC3=O)[C@H](OC(C)=O)[C@@H](OC(C)=O)[C@H]1OC(C)=O
IC50 [4]: 59.2 nM
IC50 [5]: 59.2 nM
Kd [6]: 23400 nM
Kd [2]: 5400 nM
EC50 [7]: 460 nM
inhibition (HEK293T): 99%
EC50 [8]: 990 nM

CC1(C)CC[C@]2(C(=O)N[C@@H]3O[C@H](CO)[C@H](O)[C@H](O)[C@H]3O)CC[C@]3(C)C(=CC[C@@H]4[C@@]5(C)CC[C@H](O)C(C)(C)[C@@H]5CC[C@]43C)[C@@H]2C1
inhibition (HEK293T): 16%

CC1(C)CC[C@]2(C(=O)O)[C@H](O)C[C@]3(C)C(=CC[C@@H]4[C@@]5(C)CC[C@H](O)C(C)(C)[C@@H]5CC[C@]43C)[C@@H]2C1
inhibition (HEK293T): 2%

CC(=O)OC[C@H]1O[C@@H](NC(=O)[C@]23CCC(C)(C)C[C@H]2C2=CC[C@@H]4[C@@]5(C)CC[C@H](O)C(C)(C)[C@@H]5CC[C@@]4(C)[C@]2(C)CC3)[C@H](OC(C)=O)[C@@H](OC(C)=O)[C@H]1OC(C)=O
inhibition (HEK293T): 32%

CC(=O)OC[C@H]1O[C@@H](NC(=O)[C@]23CCC(C)(C)C[C@H]2C2=CC[C@@H]4[C@@]5(C)CC[C@H](O)C(C)(C)[C@@H]5CC[C@@]4(C)[C@]2(C)C[C@H]3O)[C@H](OC(C)=O)[C@@H](OC(C)=O)[C@H]1OC(C)=O
inhibition (HEK293T): 22%

CC(C)C1=C2[C@H]3CC[C@@H]4[C@@]5(C)CC[C@H](OC(=O)CC(C)(C)C(=O)O)C(C)(C)[C@@H]5CC[C@@]4(C)[C@]3(C)CC[C@@]2([C@@H](O)CN(CCN(C)C)Cc2ccc(Cl)cc2)CC1=O [GSK2838232]
IC50 [9]: 0.71 nM
IC50 [10]: 0.81 nM

CC1(C)CCC2C(=O)C[C@]3(C)C(=CC[C@@H]4[C@@]5(C)CCC(=O)C(C)(C)[C@@H]5CC[C@]43C)[C@@H]2C1 (stereo partly drawn)
IC50 [4]: 1350 nM
IC50 [5]: 1350 nM
inhibition (HEK293T): 52%

CC(=O)OC[C@H]1O[C@@H](NC(=O)[C@]23CCC(C)(C)C[C@H]2C2=CC[C@@H]4[C@@]5(C)CC[C@H](O)C(C)(C)[C@@H]5CC[C@@]4(C)[C@]2(C)C[C@H]3O)[C@@H](OC(C)=O)[C@@H](OC(C)=O)[C@@H]1OC(C)=O
inhibition (HEK293T): 17%

C=C(C)[C@@H]1CC[C@]2(C(=O)NCCCCCCCC(=O)N[C@@H](CC(C)C)[C@@H](O)CC(=O)O)CC[C@]3(C)[C@H](CC[C@@H]4[C@@]5(C)CC[C@H](O)C(C)(C)[C@@H]5CC[C@]43C)[C@@H]12
IC50 [11]: 30 nM

CC(=O)OC[C@H]1O[C@@H](NC(=O)[C@]23CCC(C)(C)C[C@H]2C2=CC[C@@H]4[C@@]5(C)CC[C@H](O)C(C)(C)[C@@H]5CC[C@@]4(C)[C@]2(C)CC3)[C@@H](OC(C)=O)[C@@H](OC(C)=O)[C@@H]1OC(C)=O
inhibition (HEK293T): -4%

C=C(C)[C@@H]1CC[C@]2(C(=O)NCCCCCCCCCCC(=O)O)CC[C@]3(C)[C@H](CC[C@@H]4[C@@]5(C)CC[C@H](O)C(C)(C)[C@@H]5CC[C@]43C)[C@@H]12
IC50 [12]: 230 nM

CC1(C)CC[C@]2(C(=O)O)CC[C@]3(C)C(=CC[C@@H]4[C@@]5(C)CCC(=O)C(C)(C)[C@@H]5CC[C@]43C)[C@@H]2C1
inhibition (HEK293T): 25%

CC1(C)CC[C@]2(C(=O)O)CC[C@]3(C)C(=CC[C@@H]4[C@@]5(C)CC[C@H](O)C(C)(C)[C@@H]5CC[C@]43C)[C@@H]2C1 [OLEANOLIC_ACID]
inhibition (HEK293T): 1%
IC50 (Hepatitis C virus): 10000 nM

CC1(C)CC[C@]2(C(=O)N[C@@H]3O[C@H](CO)[C@H](O)[C@H](O)[C@H]3O)C(=O)C[C@]3(C)C(=CC[C@@H]4[C@@]5(C)CCC(=O)C(C)(C)[C@@H]5CC[C@]43C)[C@@H]2C1
inhibition (HEK293T): 6%

CC1(C)CC[C@]2(C(=O)N[C@@H]3O[C@H](CO)[C@@H](O)[C@H](O)[C@@H]3O)CC[C@]3(C)C(=CC[C@@H]4[C@@]5(C)CC[C@H](O)C(C)(C)[C@@H]5CC[C@]43C)[C@@H]2C1
inhibition (HEK293T): -5%

C=C(C)[C@@H]1CC[C@]2(C(=O)O)CC[C@]3(C)[C@H](CC[C@@H]4[C@@]5(C)CC[C@H](OC(=O)CC(C)(C)C(=O)O)C(C)(C)[C@@H]5CC[C@]43C)[C@@H]12 [BEVIRIMAT]
fraction unbound (Albumin): < 0.01
solubility [13]: < 1 µg/mL

CC(=O)OC[C@H]1O[C@@H](NC(=O)[C@]23CCC(C)(C)C[C@H]2C2=CC[C@@H]4[C@@]5(C)CCC(=O)C(C)(C)[C@@H]5CC[C@@]4(C)[C@]2(C)CC3)[C@H](OC(C)=O)[C@@H](OC(C)=O)[C@H]1OC(C)=O
IC50 [4]: 467 nM
IC50 [5]: 467 nM
inhibition (HEK293T): 93%
